A word on the pEC50: it is −log10 of the EC50, conventionally taken in molar units. Usually inhibition stands for the change of the read-out against control, counted positive when it falls. One may read the viability as a read-out of living cells in per cent, often relative to untreated cells.

The text below walks through data of article PMC10607366 (International Journal of Molecular Sciences, 2023).

The structures appear in SMILES notation. pEC50: −log10 of the molar value. Structures can show the parent of a compound that is named as a salt.

Data set [1] concerns H1N1 A/Netherlands/602/2009 (N09). The note with it: 10 µM.
Data set [2] has the same test system. Briefly: microbe, parasite or virus in culture. The note with it: for Inhibition (%): 10 µM; for inhibition at 10 µM: Influenza A virus, H1N1, A549, 48 h. Type of data set: cell-based, Influenza A virus.
Another data set is described as follows: in vitro. The settings on record: dog.
In data set [3] the test system is H1N1 A/Netherlands/602/2009 (N09). Briefly: microbe, parasite or virus in culture. Type of data set: cell-based. The settings on record: Influenza A virus, H1N1, MDCK, read-out: EC50 (95% CI).
The next data set concerns influenza virus. The note with it: cited from earlier work.
Data set [4] concerns H1N1 A/Netherlands/602/2009 (N09). Description: microbe, parasite or virus in culture. The settings on record: Influenza A virus, H1N1, A549, 48 h.
Data set [5] has the same test system. The class given is cell-based, Influenza A virus.
Data set [6] shares this test system. The class given is cell-based, Influenza A virus. This is another data set of the same source.
Data set [7] has the same test system. The class given is cell-based, Influenza A virus. The source holds these as a separate data set.
Data set [8] deals with clinical influenza A strain (H1N1). The class given is cell-based, Influenza A virus.

Take `CCN(CCCc1ccccc1)CCCc1ccccc1.O=C(O)CC(O)(CC(=O)O)C(=O)O` [Alverine citrate salt]: the “Viability (%)” value in [1] was 145%. For the same compound, the “Inhibition (%)” value in [2] amounted to 99%.

Take `C=C[C@@](C)(/C=C/c1ccc(O)cc1)CCC=C(C)C` [Bakuchiol]: in “in vitro”, the CC50 at 24 h turned out to be 46.2 µM. Besides, in data set [3], the pEC50 is 6.03. For the same compound, the “Reported inhibition of influenza virus” value in the data set on influenza virus is “inhibit influenza virus”.

In the case of `CCN(CC)CCNC(C(=O)OCCC(C)C)c1ccccc1.Cl.Cl` (stereo not drawn) [Camylofine chlorhydrate], in [1], the “Viability (%)” value worked out at 97%. Also, the “Inhibition (%)” value in [2] is 97%.

As for `COc1ccc2c(c1)[C@]13CCCC[C@@H]1[C@H](C2)N(C)CC3` [Dextromethorphan hydrobromide monohydrate], the inhibition at 10 µM in data set [2] came out at 100%. In data set [4], the viability at 10 µM worked out at 103%.

In the case of `C/C=C(/C(=C/C)c1ccc(O)cc1)c1ccc(O)cc1` [Dienestrol], in “in vitro”, the CC50 was 32.6 µM. For the same compound, the pEC50 in [3] is 5.50.

In the case of `CC/C(=C(/CC)c1ccc(O)cc1)c1ccc(O)cc1` [Diethylstilbestrol], in data set [5], the “Inhibition, pre-treatment” value is “good inhibition” and the “Potency when added post-infection” value was “potency of the compound was lost”. Moreover, the “Attachment of the virus” value in [6] was “not inhibited”. For the same compound, the “Viral RNA replication” value in data set [7] is “inhibited”. In addition, in data set [8], the “Reduction of viral load” value was “more than one log”. In addition, the CC50 in the data set “in vitro” is 9.81 µM. In addition, the “Toxicity in Mucilair tissues” value in the data set with MucilAir tissues is listed as “absence of toxicity”. In the data set on SARS-CoV-2 B.1.1.7, the “Inhibition of SARS-CoV-2” value was “did not inhibit”. Further, the inhibition at 10 µM in data set [2] was found to be 114%. In addition, in [4], the viability at 10 µM came to 72%.

For `CC[C@H](c1ccc(O)cc1)[C@@H](CC)c1ccc(O)cc1` [Hexestrol], the CC50 in “in vitro” is 46.9 µM. For the same compound, the pEC50 in data set [3] was 6.85.

`C[C@H](Cc1ccc(O)c(O)c1)[C@@H](C)Cc1ccc(O)c(O)c1` [Masoprocol]: the CC50 in “in vitro” came to 84.9 µM. The pEC50 in data set [3] was below 5.00.

As for `OC(CCN1CCCC1)(c1ccccc1)C1CCCCC1` (stereo not drawn) [Procyclidine hydrochloride], the inhibition at 10 µM in data set [2] was determined as 97%. The viability at 10 µM in data set [4] was 91%.

In turn, `Oc1ccc(/C=C/c2cc(O)cc(O)c2)cc1` [Resveratrol] displayed a CC50 in the data set “in vitro” of 52 µM. Moreover, in data set [3], the pEC50 was below 5.00. Also, the “Reported inhibition of influenza” value in the data set on influenza virus is on record as “inhibit influenza”.
